According to patent US8361971B2, “Tablet formulation of ezatiostat” (Telik, Inc., priority 2010, dated 2013):

How the values were obtained:
Type in all cases: physicochemical
[1] = Description (appearance) of tablets on storage
Experimental: (§1) Tablets of ansolvate form D, were packaged with and without desiccant (Sorb-It Cannister, 1 gram). Fifty tablets were packaged in a round, white 1500 mL bottle with a screw cap over an induction seal. Impurities were assayed by HPLC. When stored at 25° C./60% RH with desiccant for 3 months, no increase in total impurities was observed. When stored at 40° C./75% RH with desiccant for 3 months, total impurities increased only by 0.3%. When stored at 40° C./75% RH without desiccant for 3 months, total impurities still increased by 1.1%. As tabulated below, the presence of desiccant appears to further increase the stability of the ansolvate form D. Even though the dissolution rate of tablets containing polymorph D from one batch was below specification (<70%) at an initial test as well as after 3 months at 25° C./60% RH with desiccant, the subsequent batches met the required specification.

[2] = Assay and impurities by HPLC of tablets on storage; parameters: key to Individual Impurities RRT = 0.74 / Individual Impurities RRT = 0.83 / TLK 236 RRT = 0.88 / Individual Impurities RRT = 0.94 / Individual Impurities RRT = 0.96 / Total impurities / Individual Impurities RRT = 0.80 / Individual Impurities RRT = 0.81 / Individual Impurities RRT = 0.86 / Individual Impurities RRT = 0.99: impurity content in %
From the text: As used herein, “impurity” refers to one or more of: TLK 236, another polymorphic form of ezatiostat hydrochloride including without limitation form A, B, C, E, or F, and any other compound other than ezatiostat hydrochloride ansolvate, which may be identified by HPLC. TLK 236 is a monoester derived from the partial hydrolysis of ezatiostat where the phenyl glycine moiety remains esterified.
(§2) As described above, form E converts to form B simply during tableting.
as §1

[3] = Tablet dissolution (Q at 45 min); conditions: tablets, hydrochloride
From the text: Without being bound by theory, a higher dissolution rate relates to a higher amount of the active agent in the gastric fluid, which in turn relates to higher bioavailability of the active agent. A high bioavailability is desired, for example and without limitation, for reducing inter patient variability of drug exposure for a orally administered agent such as ezatiostat hydrochloride. […] The aqueous solubility can be measured in a variety of aqueous solvents, including without limitation, water, 0.9% aqueous NaCl, 5% dextrose for injection, phosphate buffered saline, and generally aqueous solutions having a pH of less than about 5. Such solvents may include suitable buffers and other salts. […]
as §1

[4] = Water content of tablets on storage; conditions: hydrochloride
Experimental: Karl Fischer analyses for water determination were performed on a Mettler Toledo DL39 Karl Fischer titrator. About 10-15 mg of sample was placed in the KF titration vessel containing approximately 100 mL of Hydranal®—Coulomat AD reagent and mixed for 60 seconds to ensure dissolution. The dissolved sample was then titrated by means of a generator electrode which produces iodine by electrochemical oxidation. […]
as §1

[5] = X-ray diffraction, polymorphic form in tablets; conditions: hydrochloride; for X-ray Diffraction: tablets
Experimental: X-ray powder diffraction (XRPD) analyses were performed on a Shimadzu XRD-6000 X-ray powder diffractometer using Cu Kα radiation from a long fine focus X-ray tube, operated at 40 kV, 40 mA. The divergence and scattering slits were set at 1° and the receiving slit was set at 0.15 mm. Diffracted radiation was detected by a NaI scintillation detector. A θ-2θ continuous scan at 3°/min (0.4 sec/0.02° step) from 2.5°-40° 2θ was used. A silicon standard was analyzed to check alignment of the instrument. Data were collected and analyzed using XRD-6000 v.4.1 software.
Stress experiments: solids were stressed under different temperature and/or relative humidity (RH) environments for a measured time period. Specific RH values were achieved by placing the sample inside sealed chambers containing saturated salt solutions. Samples were analyzed by XRPD immediately after removal from the stress environment.
as §2, §1

[6] = Assay and impurities by HPLC of tablets on storage; parameters: key to Individual Impurities RRT = 0.74 / TLK 236 RRT = 0.88 / Individual Impurities RRT = 0.96 / Total impurities: impurity content in %; conditions: 6 Month at 40° C./75% RH without desiccant, hydrochloride
[7] = 3 Month at 40° C./75% RH without desiccant
[8] = 6 Month at 40° C./75% RH without desiccant, hydrochloride
[9] = 3 Month at 40° C./75% RH without desiccant, hydrochloride
[10] = 6 Month at 40° C./75% RH without desiccant

CCOC(=O)[C@@H](N)CCC(=O)N[C@@H](CSCc1ccccc1)C(=O)N[C@@H](C(=O)OCC)c1ccccc1.Cl [Polymorph Form E, ezatiostat hydrochloride]
Description [1, 7]: Off-white | Description [1, 8]: Brown round | Description ([1]; Initial): White round | Individual Impurities RRT = 0.59/0.62 [2, 7]: 0.07 | Individual Impurities RRT = 0.86 [2, 7]: 0.06 | Assay (HPLC) [2, 9]: 90.3 % Label Claim | Individual Impurities RRT = 0.74 [2, 9]: 0.42 | Individual Impurities RRT = 0.80 [2, 9]: 0.16 | Individual Impurities RRT = 0.81 [2, 9]: 0.14 | Individual Impurities RRT = 0.83 [2, 9]: 0.31 | Individual Impurities RRT = 0.94 [2, 9]: 0.08 | Individual Impurities RRT = 0.96 [2, 9]: 0.19 | Individual Impurities RRT = 0.99 [2, 9]: 0.20 | TLK 236 RRT = 0.88 [2, 9]: 3.45 | Total impurities [2, 9]: 5.1 | Individual Impurities RRT = 0.80 [2, 8]: 0.41 | Individual Impurities RRT = 0.81 [2, 8]: 0.17 | Individual Impurities RRT = 0.83 [2, 8]: 0.16 | Individual Impurities RRT = 0.99 ([2]; Initial): 0.12 | Assay (HPLC) ([2]; Initial, hydrochloride): 93.7 % Label Claim | Individual Impurities RRT = 0.74 ([2]; Initial, hydrochloride): 0.38 | Individual Impurities RRT = 0.83 ([2]; Initial, hydrochloride): 0.34 | Individual Impurities RRT = 0.96 ([2]; Initial, hydrochloride): 0.20 | TLK 236 RRT = 0.88 ([2]; Initial, hydrochloride): 0.42 | Total impurities ([2]; Initial, hydrochloride): 1.5 | Dissolution, Mean at 45 min [3, 7]: Mean = 33 % of label claim | Dissolution, Mean at 45 min [3, 10]: Mean = 19 % of label claim | Dissolution, Mean at 45 min ([3]; Initial): Mean = 46 % of label claim | Water Content [4, 7]: 2.3% | Water Content [4, 10]: 2.3% | Water Content ([4]; Initial): 3.5% | polymorphic conversion on storage ([5]; 40° C. and 75% RH without a desiccant, form D 6 months, form E 3 months, listed as solvate form E): transforms into a mixture of form B and the ansolvate form D within 3 months | polymorphic conversion during tablet manufacture ([5]; during tablet manufacture, listed as solvate form E): transforms almost entirely to form B crystals merely during tablet manufacture | X-ray Diffraction [5, 7]: Polymorph B | X-ray Diffraction [5, 10]: Polymorph B | X-ray Diffraction ([5]; Initial): Polymorph B | Assay (HPLC) [6]: 84.6 % Label Claim | Individual Impurities RRT = 0.59/0.62 [6]: 0.15 | Individual Impurities RRT = 0.74 [6]: 0.51 | Individual Impurities RRT = 0.96 [6]: 0.24 | TLK 236 RRT = 0.88 [6]: 4.66 | Total impurities [6]: 6.3
